Earlier results on one compound are cited in patent US5272138A, “Naturally occurring gangliosides containing de-N-acetyl-sialic acid and their applications as modifiers of cell physiology” (The Biomembrane Institute, priority 1990, dated 1993).

For the data set the following is noted: compared with lysolecithin, Taketomi and Kawamura 1970.

`CCCCCCCCCCCCCC=CC(O)C(N)COC1OC(CO)C(OC2OC(CO)C(O)C(OC3(C(=O)O)CC(O)C(N)C(C(O)C(O)CO)O3)C2O)C(O)C1O` (stereo not shown): the hemolytic activity result is given as “twice that of lysolecithin”.
